In US20260206751A1, “NOVEL BICYCLIC-CARBOXAMIDE COMPOUNDS USEFUL AS PESTICIDES” (SYNGENTA CROP PROTECTION AG, priority 2022, published 2026):

How the values were obtained:
Type in all cases: in vivo
[1] = test system: Myzus persicae (Green Peach Aphid); experiment: Myzus persicae (green peach aphid) feeding/contact activity, sunflower leaf discs; conditions: foliar, 144 h, application rate 200 ppm, sprayed sunflower leaf discs, aphid population of mixed ages, 6 days after infestation
Description: Example B4: Myzus persicae (Green Peach Aphid):Feeding/Contact Activity
(§1) Sunflower leaf discs were placed onto agar in a 24-well microtiter plate and sprayed with aqueous test solutions prepared from 10,000 ppm DMSO stock solutions. After drying, the leaf discs were infested with an aphid population of mixed ages. The samples were assessed for mortality 6 days after infestation.

[2] = test system: Plutella xylostella (Diamond Back Moth); experiment: Plutella xylostella (diamond back moth) feeding/contact activity; conditions: 192 h, application rate 200 ppm, artificial diet, Plutella eggs, 8 days after infestation, read-out: effect in at least one of the two categories (mortality or growth inhibition)
Description: Example B7: Plutella xylostella (Diamond Back Moth) Feeding/Contact Activity
24-well microtiter plates with artificial diet were treated with aqueous test solutions prepared from 10,000 ppm DMSO stock solutions by pipetting. After drying, Plutella eggs were pipetted through a plastic stencil onto a gel blotting paper and the plate was closed with it. The samples were assessed for mortality and growth inhibition in comparison to untreated samples 8 days after infestation.

[3] = test system: Myzus persicae (Green Peach Aphid); experiment: Myzus persicae (green peach aphid) intrinsic activity; conditions: 120 h, test rate 12 ppm, mixed with sucrose solution, Parafilm, infested pea seedlings, 5 days after infestation
Source text: Example B5: Myzus persicae (Green Peach Aphid). Intrinsic Activity
Test compounds prepared from 10,000 ppm DMSO stock solutions were applied by pipette into 24-well microtiter plates and mixed with sucrose solution. The plates were closed with a stretched Parafilm. A plastic stencil with 24 holes was placed onto the plate and infested pea seedlings were placed directly on the Parafilm. The infested plate was closed with a gel blotting paper and another plastic stencil and then turned upside down. The samples were assessed for mortality 5 days after infestation.

[4] = test system: Frankliniella occidentalis (Western Flower Thrips); experiment: Frankliniella occidentalis (western flower thrips) feeding/contact activity; conditions: foliar, 168 h, application rate 200 ppm, sprayed sunflower leaf discs, population of mixed ages, 7 days after infestation
Description: Example B3: Frankliniella occidentalis (Western Flower Thrips): Feeding/Contact Activity
Sunflower leaf discs were placed on agar in 24-well microtiter plates and sprayed with aqueous test solutions prepared from 10,000 DMSO stock solutions. After drying the leaf discs were infested with a Frankliniella population of mixed ages. The samples were assessed for mortality 7 days after infestation.

[5] = test system: Diabrotica balteata (Corn Root Worm); experiment: Diabrotica balteata (corn root worm) feeding/contact activity; conditions: 96 h, application rate 200 ppm, sprayed maize sprouts, L2 larvae, 4 days after infestation, read-out: effect in at least one of the two categories (mortality or growth inhibition)
Description: Example B1: Diabrotica balteata (Corn Root Worm) Feeding/Contact Activity
Maize sprouts placed onto an agar layer in 24-well microtiter plates were treated with aqueous test solutions prepared from 10,000 ppm DMSO stock solutions by spraying. After drying, the plates were infested with L2 larvae (6 to 10 per well). The samples were assessed for mortality and growth inhibition in comparison to untreated samples 4 days after infestation.

[6] = test system: Euschistus heros (Neotropical Brown Stink Bug); experiment: Euschistus heros (neotropical brown stink bug) feeding/contact activity; conditions: 120 h, application rate 200 ppm, sprayed soybean leaves, N2 nymphs, 5 days after infestation, read-out: effect in at least one of the two categories (mortality or growth inhibition)
Description: Example B2: Euschistus heros (Neotropical Brown Stink Bug) Feeding/Contact Activity
Soybean leaves on agar in 24-well microtiter plates were sprayed with aqueous test solutions prepared from 10,000 ppm DMSO stock solutions. After drying the leaves were infested with N2 nymphs. The samples were assessed for mortality and growth inhibition in comparison to untreated samples 5 days after infestation.

[7] = test system: Spodoptera littoralis (Egyptian Cotton Leaf Worm); experiment: Spodoptera littoralis (Egyptian cotton leaf worm) feeding/contact activity; conditions: foliar, 72 h, application rate 200 ppm, sprayed cotton leaf discs, L1 larvae, 3 days after infestation, read-out: control (mortality, anti-feeding effect, growth inhibition)
Description: Example B8: Spodoptera littoralis (Egyptian Cotton Leaf Worm) Feeding/Contact Activity
Cotton leaf discs were placed onto agar in 24-well microtiter plates and sprayed with aqueous test solutions prepared from 10,000 ppm DMSO stock solutions. After drying the leaf discs were infested with five L1 larvae. The samples were assessed for mortality, anti-feeding effect, and growth inhibition in comparison to untreated samples 3 days after infestation. Control of Spodoptera littoralis by a test sample is given when at least one of the categories mortality, anti-feedant effect, and growth inhibition is higher than the untreated sample.

[8] = test system: Myzus persicae (Green Peach Aphid); experiment: Myzus persicae (green peach aphid) feeding/contact activity, eggplant leaf discs; conditions: foliar, 144 h, application rate 200 ppm, sprayed eggplant leaf discs, aphid population of mixed ages, 6 days after infestation, read-out: growth inhibition
Description: as §1, with “Example B6: Myzus persicae (Green Peach Aphid) Feeding/Contact Activity Eggplant” for “Sunflower”

[9] = test system: Tetranychus urticae (Two-Spotted Spider Mite); experiment: Tetranychus urticae (two-spotted spider mite) feeding/contact activity; conditions: foliar, 192 h, application rate 200 ppm, sprayed bean leaf discs, mite population of mixed ages (mobile stages), 8 days after infestation
Description: Example B9: Tetranychus urticae (Two-Spotted Spider Mite): Feeding/Contact Activity
Bean leaf discs on agar in 24-well microtiter plates were sprayed with aqueous test solutions prepared from 10,000 ppm DMSO stock solutions. After drying the leaf discs were infested with a mite population of mixed ages. The samples were assessed for mortality on mixed population (mobile stages) 8 days after infestation.

| Compound | mortality at 200 ppm [1] | percent effect (mortality or growth inhibition) at 200 ppm [2] | mortality at 12 ppm [3] | also measured |
| --- | --- | --- | --- | --- |
| C[C@@H](COc1cc2c(c(C(=O)NC3CC3)c1)CCCC2)NS(=O)(=O)C(F)(F)F [P-9, N-cyclopropyl-7-[(2S)-2-(trifluoromethylsulfonylamino)propoxy]tetralin-5-carboxamide] | ≥ 80% | ≥ 80% | ≥ 80% |  |
| C[C@@H](COc1cc2c(c(C(=O)NCc3ncccn3)c1)CCCC2)NS(=O)(=O)C(F)(F)F [P-23, N-(pyrimidin-2-ylmethyl)-7-[(2S)-2-(trifluoromethylsulfonylamino)propoxy]tetralin-5-carboxamide] |  |  |  | mortality at 200 ppm [4]: ≥ 80% |
| C[C@@H](COc1cc2c(c(C(=O)NC34CC(C3)C4)c1)CCCC2)NS(=O)(=O)C(F)(F)F [P-32, N-(1-bicyclo[1.1.1]pentanyl)-7-[(2S)-2-(trifluoromethylsulfonylamino)propoxy]tetralin-5-carboxamide] |  | ≥ 80% | ≥ 80% |  |
| Cc1c(OC[C@H](C)NS(=O)(=O)C(F)(F)F)cc(C(=O)NC2CC2)c2c1CCC2 [P-3] | ≥ 80% | ≥ 80% | ≥ 80% | percent effect (mortality or growth inhibition) at 200 ppm [5]: ≥ 80%; percent effect (mortality or growth inhibition) at 200 ppm [6]: ≥ 80%; mortality at 200 ppm [4]: ≥ 80% |
| C[C@@H](COc1cc2c(c(C(=O)Nc3ccc(F)cc3F)c1)CCCC2)NS(=O)(=O)C(F)(F)F [P-22, N-(2,4-difluorophenyl)-7-[(2S)-2-(trifluoromethylsulfonylamino)propoxy]tetralin-5-carboxamide] |  |  |  | mortality at 200 ppm [7]: ≥ 80% |
| Cc1c(OC[C@H](C)NS(=O)(=O)C(F)(F)F)cc(C(=O)NCC(F)(F)F)c2c1CCC2 [P-39, 7-methyl-N-(2,2,2-trifluoroethyl)-6-[(2S)-2-(trifluoromethylsulfonylamino)propoxy]indane-4-carboxamide] |  | ≥ 80% |  |  |
| C[C@@H](COc1cc2c(c(C(=O)NCC(F)(F)F)c1)CCCC2)NS(=O)(=O)C(F)(F)F [P-15, N-(2,2,2-trifluoroethyl)-7-[(2S)-2-(trifluoromethylsulfonylamino)propoxy]tetralin-5-carboxamide] |  | ≥ 80% |  |  |
| Cc1cc(F)ccc1NC(=O)c1cc(OC[C@H](C)NS(=O)(=O)C(F)(F)F)cc2c1CCCC2 [P-28, N-(4-fluoro-2-methyl-phenyl)-7-[(2S)-2-(trifluoromethylsulfonylamino)propoxy]tetralin-5-carboxamide] |  | ≥ 80% |  |  |
| CO/N=C/NC(=O)c1cc(OC[C@H](C)NS(=O)(=O)C(F)(F)F)c(C)c2c1CCC2 [P-6, N-[(E)-methoxyiminomethyl]-7-methyl-6-[(2S)-2-(trifluoromethylsulfonylamino)propoxy]indane-4-carboxamide] | ≥ 80% |  |  |  |
| C[C@@H](COc1cc2c(c(C(=O)NC3CC3)c1)CCC2)NS(=O)(=O)C(F)(F)F [P-33, N-cyclopropyl-6-[(2S)-2-(trifluoromethylsulfonylamino)propoxy]indane-4-carboxamide] |  |  |  | inhibition at 200 ppm [8]: ≥ 80%; percent effect (mortality or growth inhibition) at 200 ppm [6]: ≥ 80% |
| COC(=O)C1(NC(=O)c2cc(OC[C@H](C)NS(=O)(=O)C(F)(F)F)c(C)c3c2CCC3)CC1 [P-4, methyl 1-[7-methyl-6-[(2S)-2-(trifluoromethylsulfonylamino)propoxy]indane-4-carbonyl]amino] cyclopropanecarboxylate] | ≥ 80% | ≥ 80% |  |  |
| C[C@@H](COc1cc2c(c(C(=O)NC3(C#N)CC3)c1)CCCC2)NS(=O)(=O)C(F)(F)F [P-8, N-(1-cyanocyclopropyl)-7-[(2S)-2-(trifluoromethylsulfonylamino)propoxy]tetralin-5-carboxamide] | ≥ 80% | ≥ 80% | ≥ 80% |  |
| CCN1OC[C@@H](NC(=O)c2cc(OC[C@H](C)NS(=O)(=O)C(F)(F)F)c(C)c3c2CCC3)C1=O [P-2, N-[(4R)-2-ethyl-3-oxo-isoxazolidin-4-yl]-7-methyl-6-[(2S)-2-(trifluoromethylsulfonylamino)propoxy]indane-4-carboxamide] | ≥ 80% |  |  |  |
| Cc1c(OC[C@H](C)NS(=O)(=O)C(F)(F)F)cc(C(=O)NC2CON(CC(F)(F)F)C2=O)c2c1CCC2 (stereo partly drawn) [P-40, 7-methyl-N-[3-oxo-2-(2,2,2-trifluoroethyl)isoxazolidin-4-yl]-6-[(2S)-2-(trifluoromethylsulfonylamino)propoxy]indane-4-carboxamide] |  | ≥ 80% | ≥ 80% |  |
| Cc1c(OC[C@H](C)NS(=O)(=O)C(F)(F)F)cc(C(=O)NC2(C#N)CC2)c2c1CCC2 [P-7, N-(1-cyanocyclopropyl)-7-methyl-6-[(2S)-2-(trifluoromethylsulfonylamino)propoxy]indane-4-carboxamide] | ≥ 80% |  | ≥ 80% | mortality at 200 ppm [4]: ≥ 80% |
| Cc1c(OC[C@H](C)NS(=O)(=O)C(F)(F)F)cc(C(=O)NC2(C(=O)O)CC2)c2c1CCC2 [P-5] | ≥ 80% |  |  |  |
| Cc1cc(F)ccc1NC(=O)c1cc(OC[C@H](C)NS(=O)(=O)C(F)(F)F)c(C)c2c1CCC2 [P-42, N-(4-fluoro-2-methyl-phenyl)-7-methyl-6-[(2S)-2-(trifluoromethylsulfonylamino)propoxy]indane-4-carboxamide] |  |  | ≥ 80% |  |
| C[C@@H](COc1cc2c(c(C(=O)NC3(C#N)CCC3)c1)CCCC2)NS(=O)(=O)C(F)(F)F [P-11, N-(1-cyanocyclobutyl)-7-[(2S)-2-(trifluoromethylsulfonylamino)propoxy]tetralin-5-carboxamide] |  |  | ≥ 80% |  |
| Cc1c(OC[C@H](C)NS(=O)(=O)C(F)(F)F)cc(C(=O)NC23CC(C2)C3)c2c1CCC2 [P-41, N-(1-bicyclo[1.1.1]pentanyl)-7-methyl-6-[(2S)-2-(trifluoromethylsulfonylamino)propoxy]indane-4-carboxamide] |  | ≥ 80% | ≥ 80% |  |
| C[C@@H](COc1cc2c(c(C(N)=O)c1)CCCC2)NS(=O)(=O)C(F)(F)F [P-30, 7-[(2S)-2-(trifluoromethylsulfonylamino)propoxy]tetralin-5-carboxamide] |  |  |  | inhibition at 200 ppm [8]: ≥ 80% |
| Cc1c(OC[C@H](C)NS(=O)(=O)C(Cl)Cl)cc(C(=O)NC2CC2)c2c1CCC2 [P-34, N-cyclopropyl-6-[(2S)-2-(dichloromethylsulfonylamino)propoxy]-7-methyl-indane-4-carboxamide] |  |  |  | mortality at 200 ppm [9]: ≥ 80% |
| Cc1c(OC[C@H](C)NS(=O)(=O)C(F)(F)F)cc(C(N)=O)c2c1CCC2 [P-1, 7-methyl-6-[(2S)-2-(trifluoromethylsulfonylamino)propoxy]indane-4-carboxamide] | ≥ 80% |  |  |  |
